The subject of one series is mice. As to the kind of experiment: Inhibitory Avoidance in Mouse (24-hour recall). The series is classed as in vivo. To be noted: 24 hours after initial exposure, 0.001, 0.01, 0.1, and 1.0 mg/kg i.p., versus control. As to the method: Inhibitory Avoidance in Mouse: The inhibitory avoidance task involves the uses of a two-compartment step through apparatus (Ugo Basile, Collegeville, Pa.) that measures the animal's ability to remember a brief noxious stimulus (foot shock), and is considered a measure of trial learning, and memory consolidation. Briefly, 30 minutes after dosing, mice were placed in a lighted compartment of the apparatus where the latency to enter into the preferred dark compartment is recorded. Entry into a dark compartment results in the immediate delivery of a mild foot shock (0.2 mA, 1-second duration). Retention testing is conducted 24 hours later with the animal again placed in the lighted compartment where its latency to reenter the dark side of the apparatus is measured (no shock). Increasing retention latency is regarded as an index of memory consolidation (Bitner, R. S.; Bunnelle, W. H.; et al. Broad-spectrum efficacy across cognitive domains by α7 nicotinic acetylcholine receptor agonism correlates with activation of ERK1/2 and CREB phosphorylation pathways. J. Neurosci. 2007, 27 (39), 10578-10587.). […] (*p<0.05; **p<0.01, ***p<0.001 versus control)

Series [1] concerns primary postnatal (P0) cortical cells. As to the kind of experiment: Neurite Outgrowth Assay (neuroprotection against Aβ1-42-induced reduction of neurite outgrowth). The series is classed as cell-based, rat. As to the method: In addition to PC12 cells, other cellular model systems may also be used. Rat cortical cells can be cultured and prepared for high content microscopy analysis as previously described (Hu, M.; Schurdak, M. E.; et al. High content screen microscopy analysis of Aβ1-42-induced neurite outgrowth reduction in rat primary cortical neurons: Neuroprotective effects of α7 neuronal nicotinic acetylcholine receptor ligands. Brain Res. 2007, 1151, 227-235.). Briefly, cortical cell cultures are plated at density of 5×10^5 cells/mL onto poly-D-lysine coated 96-well plates and maintained in a cell incubator at 37° C. with 5% CO2. Experiments are performed using 6-7 day-old cortical cell cultures by treating with test compounds. In some experiments, the effect of test compounds on reversing Aβ toxicity can also be measured (Hu, M.; Schurdak, M. E.; et al. High content screen microscopy analysis of Aβ1-42-induced neurite outgrowth reduction in rat primary cortical neurons: Neuroprotective effects of α7 neuronal nicotinic acetylcholine receptor ligands. Brain Res. 2007, 1151, 227-235.). For assessment of neuroprotective effects, cells are first pretreated with test compounds for about 5 hours. Medium is then replaced with the medium containing freshly prepared about 5 μM Aβ1-42 peptide in the absence or presence of the test compounds for 3 days. The untreated group contains the same percentage of vehicle (DMSO) as in the treatment groups. Cells are fixed with approximately 4% paraformaldehyde containing 0.5% Hoechst 33342 for about 15 minutes, followed by three washes using PBS (pH 7.4) and blocked with 10% donkey serum in PBS for 1 hour at room temperature. The cells are then incubated overnight at about 4° C. with mouse anti-tubulin monoclonal antibody (1:100) for staining neurons and rabbit anti-GFAP (1:1000) for staining glia. In the next day, cells are incubated with FITC-labeled anti-mouse and TRITC-labeled anti-rabbit antibodies (1:1000) for about 1 hour at room temperature. After fixing and staining the cells, nuclei (360/400 nm excitation and 465/300 nm emission filters), neuron (475/350 nm excitation and 535/400 nm emission filters) and glial cell (535 nm excitation and 610 nm emission filters) images are collected using the ImageExpress Micro automatic fluorescent microscopy system (Molecular Devices, Sunnyvale, Calif.) employing a Nikon 10× Plan Fluor objective and Cool Snap HQ CCD camera. The Neurite Outgrowth module in the MetaMorph Imaging software can be used to automatically count total cell number, number of neuron cells, and the extent of neurite outgrowth.
The neurite outgrowth observed for untreated cells is set to 100% response. Treatment of cells with compounds prior to and concomitantly with Aβ1-42 gave a neuroprotective effect with neurite outgrowth maintained or enhanced relative to untreated cells.

The test system of series [2] is SK-N-SH human neuroblastoma cells. The series can be described thus: Serum Deprivation/JC-1 Mitochondrial Membrane Potential (MMP) Assay. Conditions: Homo sapiens, SK-N-SH. It is filed as cell-based. How it is done:
Tissue Culture: SK-N-SH human neuroblastoma cells obtained from American Type Culture Collection (Rockville, Md.) were maintained in the log phase of growth in Minimal Essential Media (MEM), 10% heat inactivated fetal calf serum and 100 units/mL antibiotic-antimycotic (AA). Cells were cultured and maintained in a humidified incubator at 37° C. under 5% CO2 and 95% air. Cells were trypsinized (0.25%) and subcultured every 3 days and used from 15-18 passages. All cell culture supplies were obtained from Invitrogen (Carlsbad, Calif.).
Serum Deprivation/JC-1 Mitochondrial Membrane Potential (MMP) Assay.
SK-N-SH cells were plated 2-3 days in advance at a concentration of 50,000 cells/well onto collagen coated black-walled 96 well plates (Becton-Dickinson, Bedford, Mass.) in a total volume of 200 μL. On day of experimental treatment, the media containing serum was aspirated from each well and rinsed once with MEM/1% AA without serum. The cells then were incubated overnight in 100 μL of MEM/1% AA (no serum) with and without dimebolin or novel chemical entities overnight for ˜18 hours. The following day, JC-1 dye (5,5′,6,6′-tetrachloro-1,1′,3,3′-tetraethylbenzimidazolcarbocyanide) was diluted 1:10 into MEM media according to the JC-1 Mitochondrial Membrane Potential Assay Kit: (Cayman Chemical Company, Ann Arbor, Mich.) and then 10 μL of the JC-1 dye solution was added to each well. The plates were centrifuged for 5 minutes at 400×g at room temperature followed by 40 minute incubation at 37° C. The plates were washed twice with 200 μL of provided Assay Buffer followed an addition of 100 μL of Assay Buffer to each well. The plates were read with an excitation and emission of 560 nm and 595 nM for red fluorescence and with an excitation and emission of […] and 535 nM for green fluorescence to determine the final JC-1 value taking the red to green fluorescence ratio. This assay is based on change in mitochondrial membrane potential (MMP) using this lipophilic cationic dye, JC-1, by monitoring the changes in the ratio of red to green fluorescence as the MMP depolarizes. This change in MMP reflects the health of the cell with healthy, viable cells have a high JC-1 ratio and high MMP whereas apoptotic, unhealthy cells have a low JC-1 ratio or low MMP.
For the ability of compounds to reverse the stress due to serum deprivation and increase the JC-1 ratio, the percent maximal intensity in JC-1 ratio was normalized to that induced by the peak value for 10 μM dimebolin and plotted against the compound concentration to calculate EC50 values and to control for plate-to-plate variability. Concentration-response data were analyzed using GraphPad Prism (San Diego, Calif.); the EC50 values were derived from a single curve fit to the mean data of n=2-3, in duplicates.
All compounds were dissolved in dimethyl sulfoxide at 10 mM stock solutions and tested at a concentration that the dimethyl sulfoxide levels never exceeded 1%.

Series [3] relates to Patients with mild-to-moderate Alzheimer's disease. Conditions: cited from earlier work.
The subject of series [4] is primary rat cortical neurons. To be noted: comparable to that evoked by BDNF; cited from earlier work.

The text below walks through data of patent US8524703B2, “Bridgehead amine ring-fused indoles and indolines” (AbbVie Inc., priority 2009, dated 2013).

Each structure is given as a SMILES string. Entries after “also recorded” stand apart in the source; their conditions may differ.

For the compound `Cc1ccc(C#Cc2cccc3c4c([nH]c23)C2CCN(CC2)C4)cn1` [Example 3, 7-[(6-methylpyridin-3-yl)ethynyl]-3,4,5,6-tetrahydro-1H-2,5-ethanoazepino[4,3-b]indole], in the series on mice, the “latency to reenter the dark side (punishment side)” value is recorded as “significantly increased; also recorded: concentration-dependent improvement”. Besides, in series [1] (5 μM Aβ1-42, 3 days, compound pretreatment about 5 hours), the “% Attenuation Effect of 5 μM Aβ 1-42” value amounted to 43%. The Emax at 3 µM in series [1] (Rattus norvegicus, maximum response at 3000 nM test compound, relative to 300 nM dimebolin, read-out: Maximum Effect (of % 300 nM Dimebolin) at Concentration) amounted to 115%. Moreover, the Emax in series [2] (percent maximal JC-1 ratio normalized to peak value for 10 μM dimebolin, read-out: JC-1 max %) was 188%. In addition, in series [2] (serum deprivation ~18 hours, JC-1 ratio normalized to peak value for 10 μM dimebolin), the EC50 is 4.36 µM.
Take `Cc1ccc2c(c1)c1c(n2CCc2ccc(C)nc2)CCN(C)C1` [dimebolin, 2,3,4,5-tetrahydro-2,8-dimethyl-5-[2-(6-methyl-3-pyridinyl)ethyl]-1H-pyrido[4,3-b]indole]: the “clinical course of disease, improvement over baseline for ADAS-Cog” value in series [3] (20 mg three times a day (60 mg/day)) is given as “significant improvement”. Further, the “most frequent adverse event” value in series [3] (recently reported clinical studies) was “dry mouth”. Also, the neurite outgrowth result in series [4] is “increase neurite outgrowth”.

What is called EC50 is the midpoint of the concentration-response curve.
